Measurements from patent publication US20140155420A1, “INHIBITORS OF EYA2” (The Regents of the University of Colorado, a body corporate, priority 2011, published 2014).
“Also recorded” adds a separate entry of the source. One block for each compound: values may come before it.

How the values were obtained:
[1] = UV-Vis spectra with Mg2+ titration; assay type: physicochemical; conditions: acetonitrile; for λmax without Mg2+ / λmax with Mg2+: 25 μM compound; for λmax without Mg2+: 0 mM Mg2+
Experimental: Compounds were dissolved in acetonitrile at a final concentration of 25 μM with final Mg^2+ concentration at 0, 0.5, 1, 5, 10, 25, 50, 100 and 200 mM. UV-visible spectra were obtained using an Agilent 8453 UV-Visible Spectrophotometer (Agilent Technologies) in 0.1 cm quartz cuvette at room temperature.
In order to elicit any possible weak association to Mg^2+, the inventors moved on to the organic solvent acetonitrile (Hojo et al., 2002). […] The solutions were prepared such that the absorbance was within the 0-1 range.

[2] = test system: Six1/Eya2-mediated transcription; assay: MEF3-promoter luciferase assay in MCF7 cells; assay type: cell-based; conditions: compound incubated 48 hours
Experimental: MCF7 cells were plated in 24-well plates at 25,000 cells/well. 24 hours later, cells were transfected with 300 ng/well pGL3-6xMEF3 (a promoter-luciferase construct in which the promoter contains 6 well characterized Six1 MEF3 binding sites (Spitz et al., 1998)), 70 ng/well renilla luciferase, 100 ng/well pcDNA3.1 Six1, and 200 ng/well of pcDNA3.1-FLAG-Eya2 using FuGENE 6 (Roche Applied Science) transfection reagent. The following day the media was changed and 24 hours later lysates were prepared and analyzed with the Dual Luciferase Kit (Promega) on a Modulus Microplate (Turner Biosystems). An Eya2 phosphatase-dead mutant (D274N) was also used in place of wild type Eya2 to evaluate the effect of Eya2's phosphatase activity on transcription. To assay the effect of Eya2 phosphatase inhibitors on transcriptional activity, compound was added 24 hours after transfection and incubated for 48 hours before lysates were prepared and analyzed for luciferase activity as described above. All results were normalized to renilla activity to account for transfection efficiency and transcriptional activity was normalized to Eya2 protein expression in the Eya2 D274N rescue experiment. The inhibitory effect of the compounds was normalized to vehicle-treated control and statistical significance was determined by performing a one-way ANOVA with Dunnett's post-test on the natural log transformed normalized transcriptional activity.

[3] = UV-Vis spectra with Na+ titration; assay type: physicochemical; conditions: acetonitrile
Experimental: In order to elicit any possible weak association to Mg^2+, the inventors moved on to the organic solvent acetonitrile (Hojo et al., 2002). […] The solutions were prepared such that the absorbance was within the 0-1 range. They observed a dose-dependent shift in the maximum absorbance wavelength (λmax), from 322 nm (0 mM Mg^2+) to 334 nm (100 mM Mg^2+) (FIGS. 11B, 11C). The inventors conducted a similar study with Na where the compound concentration was kept at 12.5 μM and the sodium perchlorate concentration ranged from 0 to 25 mM.

Eya2 ED = molecular target: T1, Eya2 ED (Homo sapiens, UniProt O00167); conditions: no extra Mg2+ added
T1 sequence (O00167 253-538): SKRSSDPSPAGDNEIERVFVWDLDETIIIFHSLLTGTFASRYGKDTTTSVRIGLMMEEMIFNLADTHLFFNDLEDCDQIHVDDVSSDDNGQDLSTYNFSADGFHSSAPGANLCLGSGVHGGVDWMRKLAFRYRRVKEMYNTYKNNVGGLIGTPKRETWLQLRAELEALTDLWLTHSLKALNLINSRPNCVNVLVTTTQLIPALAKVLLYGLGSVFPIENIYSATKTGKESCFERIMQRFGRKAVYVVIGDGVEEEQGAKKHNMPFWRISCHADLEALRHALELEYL

λmax without Mg2+ [1]: 316 nm | λmax with Mg2+ ([1]; 50 mM Mg2+): 327 nm
Compound: Cc1ccccc1C(=O)N/N=C/c1ccc(Sc2ccccn2)o1 [MLS000585814]
Effect on Six1/Eya2-mediated transcription from the MEF3-luciferase reporter [2]: diminish; also recorded: inhibit

Intrinsic affinity for Mg2+ [1]: very weak intrinsic affinity | λmax without Mg2+ [1]: 322 nm | λmax with Mg2+ ([1]; 100 mM Mg2+): 334 nm | λmax when titrated with Na+ [3]: 323 nm
Compound: O=C(N/N=C/c1ccc(Sc2ccccn2)o1)c1cccc(F)c1 [MLS000544460]
Effect on Six1/Eya2-mediated transcription from the MEF3-luciferase reporter [2]: inhibit | Effect on Six1/Eya2-mediated transcription from the MEF3-luciferase reporter ([2]; listed as MLS00044460): diminish

Compound: O=C(N/N=C/c1ccc(Sc2ccccn2)o1)c1ccncc1 [NCGC00241224]
Effect on Six1/Eya2-mediated transcription from the MEF3-luciferase reporter [2]: does not significantly affect; also recorded: does not significantly inhibit

Effect on ED melting temperature (Tm) (Eya2 ED): reduces Tm
Compound: O=C(O)CN(CCN(CC(=O)O)CC(=O)O)CC(=O)O [EDTA]
